# Test results taken from article PMC5574463, “Improving ethanol yield in acetate-reducing Saccharomyces cerevisiae by cofactor engineering of 6-phosphogluconate dehydrogenase and deletion of ALD6” (Microbial Cell Factories, 2016).
# Columns and labels:
# Assay in all cases: spectrophotometric NADH formation at […] nm, cell extract
# Assay type in all cases: biochemical
# Conditions in all cases: 0.4 mM NAD+, 5 mM 6-phosphogluconate, 5 mM MgCl2, 50 mM Tris-HCl pH 8.0, 30 C
# [1] = target: T1, G. oxydans gox1705 (NAD+-preferring 6-phosphogluconate dehydrogenase) (Gluconobacter oxydans, UniProt G5EBD7)
# T1 construct: codon-optimized gene, TPI1 promoter, integrated at GND1 locus of S. cerevisiae gnd1 gnd2 deletion strain IMX707; cell extract
# [2] = target: T2, B. japonicum 6pgdh (NAD+-dependent 6-phosphogluconate dehydrogenase) (Bradyrhizobium diazoefficiens, UniProt Q89FE2)
# T2 construct: gene blr6759; codon-optimized gene, TPI1 promoter, integrated at GND1 locus of S. cerevisiae gnd1 gnd2 deletion strain IMX706; cell extract
# [3] = target: T3, GndA (M. flagellatus NAD+-dependent 6-phosphogluconate dehydrogenase, gndA) (Methylobacillus flagellatus, UniProt Q9L9P8)
# T3 construct: codon-optimized gene, TPI1 promoter, integrated at GND1 locus of S. cerevisiae gnd1 gnd2 deletion strain IMX705; cell extract
# T3 sequence (Q9L9P8 entry or part of it): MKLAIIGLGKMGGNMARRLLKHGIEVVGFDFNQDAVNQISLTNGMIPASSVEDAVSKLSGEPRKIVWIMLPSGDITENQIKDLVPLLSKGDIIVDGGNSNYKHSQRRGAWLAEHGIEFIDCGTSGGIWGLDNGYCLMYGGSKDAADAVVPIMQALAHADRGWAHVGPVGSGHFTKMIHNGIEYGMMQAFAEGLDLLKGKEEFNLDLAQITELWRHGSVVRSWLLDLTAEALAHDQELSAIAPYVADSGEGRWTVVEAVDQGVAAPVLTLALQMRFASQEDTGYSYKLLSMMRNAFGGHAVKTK
# T1 sequence (G5EBD7 whole entry): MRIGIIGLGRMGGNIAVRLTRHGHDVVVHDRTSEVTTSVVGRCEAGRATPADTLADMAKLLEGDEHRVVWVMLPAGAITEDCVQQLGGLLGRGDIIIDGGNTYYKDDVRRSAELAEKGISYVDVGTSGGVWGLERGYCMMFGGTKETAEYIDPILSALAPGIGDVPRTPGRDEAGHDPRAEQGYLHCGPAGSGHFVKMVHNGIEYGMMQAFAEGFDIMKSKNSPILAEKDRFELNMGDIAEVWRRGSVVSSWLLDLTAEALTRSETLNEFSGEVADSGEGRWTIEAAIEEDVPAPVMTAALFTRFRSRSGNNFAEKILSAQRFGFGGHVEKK
# T2 sequence (Q89FE2 entry or part of it): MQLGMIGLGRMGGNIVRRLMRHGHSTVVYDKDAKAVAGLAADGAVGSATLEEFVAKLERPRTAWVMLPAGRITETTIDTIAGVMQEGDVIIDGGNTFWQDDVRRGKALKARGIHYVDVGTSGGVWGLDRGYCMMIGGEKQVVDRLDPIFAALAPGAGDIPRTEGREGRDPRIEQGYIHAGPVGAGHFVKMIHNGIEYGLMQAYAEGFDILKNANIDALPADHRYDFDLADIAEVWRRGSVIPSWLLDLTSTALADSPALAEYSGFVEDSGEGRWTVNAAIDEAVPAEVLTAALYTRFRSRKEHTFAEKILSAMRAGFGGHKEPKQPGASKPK
structure (smiles),measurement,setting,value
NC(=O)c1ccc[n+]([C@@H]2O[C@H](COP(=O)(O)OP(=O)(O)OC[C@H]3O[C@@H](n4cnc5c(N)ncnc54)[C@H](O)[C@@H]3O)[C@@H](O)[C@H]2O)c1 [NAD^+],"spectrophotometric NADH formation at 340 nm, cell extract",[1],expressing bacterial 6-PGDH genes showed high specific activities with NAD^+ as the electron acceptor
same,"spectrophotometric NADH formation at 340 nm, cell extract",[2],expressing bacterial 6-PGDH genes showed high specific activities with NAD^+ as the electron acceptor
same,"spectrophotometric NADH formation at 340 nm, cell extract",[3],"expressing gndA from M. flagellatus, showed the highest in vitro NAD^+-dependent 6-PGDH activity"
